# Values of other authors as cited in patent publication US4746505A, “Technetium radiodiagnostic fatty acids derived from bisamide bisthiol ligands” (President and Fellows of Harvard College, priority 1985, dated 1988).
# Assays:
# [1] = mice
# [2] = at carrier-added (CA) and no-carrier-added (NCA) concentrations
kidney activity ([1]; at 5 min post-injection),blood levels ([1]; over the first 30 min),stability in vivo (at carrier-added (CA) and no-carrier-added (NCA) concentrations),renal excretion (in vivo),stability in vitro [2],Substance
relatively high kidney activity,6-8 %/g,,,,"^99m Tc-oxo[N,N'-ethylene-bis(2-mercapto)-[2'-(11-carboxyundecyl)]thio-acetamido]-technetate (+5) [^99m TcO(Undec)ema]"
,,stable,rapid renal excretion,stable,"oxo[N,N'-ethylenebis(2-mercapto-acetamido)]technetate (+5) [[TcO(ema)]^-]"
